ChEMBL document CHEMBL3877318, “Cystatin C peptidomimetic derivative with antimicrobial properties as a potential compound against wound infections” (Bioorg Med Chem, 2017)
The source made the active and inactive calls. The calls are words filed in the database; no cut-off is given here.

Test system: PBMC
Test: Inhibition of LPS-stimulated TNF-alpha release in human PBMC at 600 ng/ml after 20 hrs by ELISPOT test
Type: functional, cell-based

C[C@@H]1C[C@H]2[C@@H]3CCC4=CC(=O)C=C[C@]4(C)[C@@]3(F)[C@@H](O)C[C@]2(C)[C@@]1(O)C(=O)CO
inhibition: Active
